Data reported in paper PMC7156724, “Potent BRD4 inhibitor suppresses cancer cell-macrophage interaction” (Nature Communications, 2020).
Values joined by “and” are separate entries in the source; they are usually repeats but may differ in a detail not shown here. Equal values may be shown once.

Experiments:
[1] = system: TMD8 large B cell lymphoma; experiment: TMD8 large B cell lymphoma model tumor growth; assay type: in vivo, mouse; details: for Tumor volume: n=6, individual animals
Description: PO, oral administration; QD, once daily; BID, twice daily. b–d Tumor growth curves for A2780 ovarian tumor (n = 5) (b), TMD8 large B cell lymphoma (n = 6) (c), and B16F10 melanoma (n = 5) (d) bearing mice treated with the indicated compounds once daily for 11-21 days. e, f Tumor growth curves for A375 melanoma (n = 6) (e), and patient-derived xenograft (PDX) of melanoma (n = 5) (f) bearing mice treated with the indicated compounds once daily (5 days on, 2 days off) for 21 days. For d–f, NHWD-870 used is NHWD-870-HCl synthesized using Suzuki coupling route. Data are presented as mean ± SEM in (a, b, d, f) and mean + SEM in (c, e). p values were calculated using two-tailed, unpaired t tests. *p < 0.05; **p < 0.01; ***p < 0.001. Source data are provided as a Source Data file.
4–6 weeks old female BALB/c nude mice were used for most experiments, with the exception of 6–8 weeks old female C57BL/6 mice were used for B16F10 experiments, and 6–8 weeks old male BALB/c nude mice and SD rats were used for pharmacokinetic experiments. All animals were purchased from Shanghai SIPPR-Bk Lab Animal Co., Ltd. All animals were housed under a regimen of 12 h light/12 h dark cycles and specific pathogen-free conditions. 5×10^6 NCI-H526, ES-2, MDA-MB231, A2780, A375, B16F10, and TMD-8 cells (0.1 ml) were injected subcutaneously into female nude mice. The melanoma patient-derived xenograft model was derived from a human melanoma sample (BRAF, NARS and NF1 wild type, and p53 mutant) removed from a patient in Xiangya Hospital. Surgically removed tumor fragments were implanted subcutaneously into female NSG mice. When the tumors grew to ~1000 mm^3, they were harvested and cryopreserved or immediately re-implanted for expansion or experiments. Mouse body weight and tumor sizes were measured every 3 days. Once the tumors grew to 150–200 mm^3, mice were treated with the compounds as described in the Figures. 1 × 10^6 A2780 cells (1 ml) were injected into the abdominal cavity of nude mice. Ascitic volume and tumor weight were measured by an electronic balance. All the procedures were evaluated and approved by the Institutional Animal Care and Use Committee of Central South University and Yale University.

[2] = system: A2780 tumor cells and TAMs; experiment: Direct co-culture of pretreated A2780 cells with TAMs, Ki67/CD68 staining; assay type: cell-based, mouse
Experimental: A2780 tumor cells were pretreated with 100 nM NHWD-870 and then directly co-cultured with TAMs (A2780:TAMs ratio as 4:1) at the density of 1 × 10^5 total cells in a 12-well. Shown are immunofluorescent staining of Ki67 and CD68 (a) and quantification of Ki67+ and CD68− or CD68+ cells (b). Scale bar is 50 μm. […] A2780 cells (pre-treated with or without 100 nM NHWD-870 for 48 h) were seeded into the top chamber (transwell size: 0.4 μm) and TAMs (Mac, 40,000 cells per 24-well) in medium containing 2% matrigel were seeded into the bottom chamber pre-coated with Matrigel. No NHWD-870 was added to the co-culture. The upper chamber without A2780 cells was used as a control. Shown are schematics of transwell co-culture experiment (c), representative pictures of TAM spheroid (d: black/white), and quantification of spheroid volumes (e). Scale bar is 50 μm. […] Data are presented as mean ± SEM from three independent experiments. g CSF1 protein levels in supernatant of 10^6 ID8, B16, A2780, SKOV3, and A375 cells treated with DMSO or 25 nM NHWD-870 for 24 h, as measured by ELISA. […] Scale bar is 20 μm. i Quantification of CSF1 staining in DMSO or 100 nM NHWD-870 treated A2780 cells. […] Shown are representative immunofluorescent staining of CSF1 (green) and CD68 (red) (j) and quantification of CSF1 staining (k). […]

Cc1nnn(C)c1-c1cnc2c3c4cnn(C)c4ccc3n([C@H](c3ccccc3)C3CCOCC3)c2c1 [NHWD-870]
Tumor volume ([1]; Fig.3c TMD-8, 1.5mg/kg p.o. QD x 21D, day 0): 214.469 mm^3 and 165.444 mm^3 and 94.318 mm^3 and 104.496 mm^3 and 146.158 mm^3 and 140.975 mm^3 | Tumor volume ([1]; Fig.3c TMD-8, 1.5mg/kg p.o. QD x 21D, day 3): 338.876 mm^3 and 252.047 mm^3 and 100.523 mm^3 and 149.534 mm^3 and 223.518 mm^3 and 132.449 mm^3 | Tumor volume ([1]; Fig.3c TMD-8, 1.5mg/kg p.o. QD x 21D, day 7): 459.258 mm^3 and 449.651 mm^3 and 146.864 mm^3 and 132.276 mm^3 and 263.192 mm^3 and 174.278 mm^3 | Tumor volume ([1]; Fig.3c TMD-8, 1.5mg/kg p.o. QD x 21D, day 10): 490.697 mm^3 and 432.678 mm^3 and 235.012 mm^3 and 190.412 mm^3 and 150.967 mm^3 and 163.029 mm^3 | Tumor volume ([1]; Fig.3c TMD-8, 1.5mg/kg p.o. QD x 21D, day 14): 640.246 mm^3 and 434.37 mm^3 and 213.016 mm^3 and 174.551 mm^3 and 71.2181 mm^3 and 175.498 mm^3 | Tumor volume ([1]; Fig.3c TMD-8, 1.5mg/kg p.o. QD x 21D, day 17): 730.308 mm^3 and 597.229 mm^3 and 374.112 mm^3 and 196.792 mm^3 and 127.555 mm^3 and 127.945 mm^3 | Tumor volume ([1]; Fig.3c TMD-8, 1.5mg/kg p.o. QD x 21D, day 21): 1151.12 mm^3 and 1193.19 mm^3 and 830.854 mm^3 and 339.119 mm^3 and 375.477 mm^3 and 217.147 mm^3 | Tumor volume ([1]; Fig.3c TMD-8, 3mg/kg p.o. QD x 21D, day 0): 135.749 mm^3 and 160.378 mm^3 and 111.097 mm^3 and 215.602 mm^3 and 96.5 mm^3 and 162.39 mm^3 | Tumor volume ([1]; Fig.3c TMD-8, 3mg/kg p.o. QD x 21D, day 3): 210.016 mm^3 and 166.954 mm^3 and 177.118 mm^3 and 367.777 mm^3 and 150.727 mm^3 and 208.299 mm^3 | Tumor volume ([1]; Fig.3c TMD-8, 3mg/kg p.o. QD x 21D, day 7): 347.833 mm^3 and 254.452 mm^3 and 292.586 mm^3 and 297.998 mm^3 and 182.149 mm^3 and 258.854 mm^3 | Tumor volume ([1]; Fig.3c TMD-8, 3mg/kg p.o. QD x 21D, day 10): 278.167 mm^3 and 325.57 mm^3 and 336.135 mm^3 and 344.695 mm^3 and 159.095 mm^3 and 292.996 mm^3 | Tumor volume ([1]; Fig.3c TMD-8, 3mg/kg p.o. QD x 21D, day 14): 177.492 mm^3 and 209.22 mm^3 and 327.654 mm^3 and 243.833 mm^3 and 100.203 mm^3 and 228.258 mm^3 | Tumor volume ([1]; Fig.3c TMD-8, 3mg/kg p.o. QD x 21D, day 17): 203.37 mm^3 and 180.739 mm^3 and 317.134 mm^3 and 320.512 mm^3 and 84.6294 mm^3 and 268.501 mm^3 | Tumor volume ([1]; Fig.3c TMD-8, 3mg/kg p.o. QD x 21D, day 21): 566.866 mm^3 and 363.185 mm^3 and 475.409 mm^3 and 503.514 mm^3 and 313.1 mm^3 and 324.211 mm^3 | effect on tumor growth ([1]; TMD8 large B cell lymphoma model, compared with Ibrutinib): stronger tumor-suppressive effects | quantification of Ki67+ and CD68+ cells ([2]; A2780 pretreated with 100 nM, direct co-culture with TAMs): 0 | inhibition at 0.1 µM ([2]; pre-treatment of A2780 cells with 100 nM, read-out: inhibition of the proliferation rate of TAMs): 83%
